From patent publication US9040527B2, “Pyrimidinediamine kinase inhibitors” (Rigel Pharmaceuticals, Inc., priority 2008, dated 2015)

Experiments:
PLK1 [1] = biological target: T1, PLK1 (Homo sapiens, UniProt P53350); test: In vitro PLK1 ELISA assay (biochemical); design: purchased Cell Signalling 7728
Outline: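 Commercial PLK1 phosphorylates neutravidin-captured biotinylated CHK2 peptide for 45 min at room temperature in HEPES pH 7.2 with Mg2+/Mn2+/DTT, compounds at 10 μM to 0.005 μM. Phospho-CHK2(T68) antibody plus HRP secondary gives chemiluminescent read-out used for IC50.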

PLK1 [2] = biological target: T1, PLK1; test: Cellular PLK1 assay in K562 cells overexpressing CDC25C; format: cell-based; design: endogenous in cells; host or cells: K562 (human chronic myelogenous leukemia) overexpressing CDC25C, nocodazole-arrested; conditions: nocodazole arrested, cdc25c p-Ser198 readout
Outline: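 K562 cells overexpressing CDC25C were arrested with 333 nM nocodazole for 18 h at 37 °C, then exposed to compound at 8 points from 10 μM to 0.005 μM in duplicate for 120 min. After fixation and permeabilization, cells were stained for cdc25c pSer198 with a PE secondary and read by flow cytometry, 10,000 cells per well.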

[3] = ELISA, CHK2-derived peptide substrate, read-out: PLK1 IC50 (μM) biochemical assay
[4] = read-out: IC50 in biochemical in vitro PLK1 ELISA assay (less than 10 μM)

T1 sequence (P53350 whole entry): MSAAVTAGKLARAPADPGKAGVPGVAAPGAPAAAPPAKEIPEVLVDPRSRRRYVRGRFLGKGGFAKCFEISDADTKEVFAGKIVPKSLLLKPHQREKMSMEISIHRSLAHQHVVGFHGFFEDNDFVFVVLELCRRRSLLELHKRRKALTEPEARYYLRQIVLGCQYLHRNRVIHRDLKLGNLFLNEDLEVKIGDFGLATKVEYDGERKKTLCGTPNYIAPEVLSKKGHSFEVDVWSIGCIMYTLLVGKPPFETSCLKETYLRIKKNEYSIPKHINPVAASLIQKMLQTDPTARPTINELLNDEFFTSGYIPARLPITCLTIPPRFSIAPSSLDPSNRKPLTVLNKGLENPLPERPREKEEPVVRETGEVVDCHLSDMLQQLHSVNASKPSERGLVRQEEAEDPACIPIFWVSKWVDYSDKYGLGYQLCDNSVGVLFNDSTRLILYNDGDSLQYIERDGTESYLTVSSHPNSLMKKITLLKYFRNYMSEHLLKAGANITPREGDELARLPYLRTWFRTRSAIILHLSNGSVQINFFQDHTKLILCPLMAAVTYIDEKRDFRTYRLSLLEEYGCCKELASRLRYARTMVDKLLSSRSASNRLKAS

Compound	IC50 (PLK1 [1]; [3]) [µM]	IC50 (PLK1 [2]) [µM]	IC50 (PLK1 [1]; [4]) [µM]
Cc1cc(Nc2ncc(C)c(Nc3ccc4c(c3)N(Cc3ccccn3)C(=O)C(F)(F)O4)n2)ccc1N1CC2CC1CN2C (stereo not shown) [compound 139, 2,2-difluoro-6-(5-methyl-2-(3-methyl-4-(5-methyl-2,5-diaza-bicyclo[2.2.1]heptan-2-yl)phenyl-amino)pyrimidin-4-ylamino)-4-(pyridin-2-ylmethyl)-2H-benzo[b][1,4]oxazin-3(4H)-one]	≥ 10	5 to 10	–
CN1CCN(c2cccc(Nc3ncc(F)c(Nc4ccc5c(n4)NC(=O)CO5)n3)c2)CC1 [compound 157, 6-(5-fluoro-2-(3-(4-methylpiperazin-1-yl)phenylamino)pyrimidin-4-ylamino)-2H-pyrido[3,2-b][1,4]oxazin-3(4H)-one]	< 0.5	< 0.5	< 10
CN1CCN(c2cccc(Nc3ncc(F)c(Nc4ccc5c(n4)NC(=O)C(C)(C)O5)n3)c2)CC1 [compound 161, 6-(5-fluoro-2-(3-(4-methylpiperazin-1-yl)phenylamino)pyrimidin-4-ylamino)-2,2-dimethyl-2H-pyrido[3,2-b][1,4]oxazin-3(4H)-one]	< 0.5	0.5 to 5	< 10
CN1CCN(c2cccc(Nc3ncc(F)c(Nc4ccc5c(n4)NCCO5)n3)c2)CC1 [compound 167, N4-(3,4-dihydro-2H-pyrido[3,2-b][1,4]oxazin-6-yl)-5-fluoro-N2-(3-(4-methylpiperazin-1-yl)phenyl)pyrimidine-2,4-diamine]	< 0.5	< 0.5	< 10
CCN1C(=O)COc2ccc(Nc3nc(Nc4ccc(N5CCN(C)CC5)cc4)ncc3Cl)cc21 [compound 173, 6-(5-chloro-2-(4-(4-methylpiperazin-1-yl)phenylamino)pyrimidin-4-ylamino)-4-ethyl-2H-benzo[b][1,4]oxazin-3(4H)-one]	0.5 to 5	0.5 to 5	< 10
CCN1CCN(c2ccc(Nc3ncc(Cl)c(Nc4ccc5c(c4)N(CC)C(=O)CO5)n3)cc2)CC1 [compound 183, 6-(5-chloro-2-(4-(4-ethylpiperazin-1-yl)phenylamino)pyrimidin-4-ylamino)-4-ethyl-2H-benzo[b][1,4]oxazin-3(4H)-one]	0.5 to 5	0.5 to 5	< 10
Cc1cnc(Nc2ccc(N3CCN(C)CC3)cc2)nc1Nc1ccc2c(c1)N(CCCF)C(=O)CO2 [compound 188, 4-(3-fluoropropyl)-6-(5-methyl-2-(4-(4-methylpiperazin-1-yl)phenylamino)pyrimidin-4-ylamino)-2H-benzo[b][1,4]oxazin-3(4H)-one]	0.5 to 5	0.5 to 5	< 10
CCN1C(=O)COc2ccc(Nc3nc(Nc4ccc(N5CCN(C)CC5)cc4)ncc3C)cc21 [compound 189, 4-ethyl-6-(5-methyl-2-(4-(4-methylpiperazin-1-yl)phenylamino)pyrimidin-4-ylamino)-2H-benzo[b][1,4]oxazin-3(4H)-one]	0.5 to 5	0.5 to 5	< 10
CCN1C(=O)COc2ccc(Nc3nc(Nc4ccc(N5CCN(C)CC5)c(C)c4)ncc3C)cc21 [compound 191, 4-ethyl-6-(5-methyl-2-(3-methyl-4-(4-methylpiperazin-1-yl)phenylamino)pyrimidin-4-ylamino)-2H-benzo[b][1,4]oxazin-3(4H)-one]	5 to 10	≥ 10	< 10
CCN1C(=O)COc2ccc(Nc3nc(Nc4ccc(N5CCN(S(C)(=O)=O)CC5)cc4)ncc3C)cc21 [compound 196, 4-ethyl-6-(5-methyl-2-(4-(4-(methyl-sulfonyl)piperazin-1-yl)phenylamino)pyrimidin-4-ylamino)-2H-benzo[b][1,4]oxazin-3(4H)-one]	0.5 to 5	5 to 10	< 10
CN1C(=O)COc2ccc(Nc3nc(Nc4ccc(N5CCN(S(C)(=O)=O)CC5)cc4)ncc3Cl)cc21 [compound 197, 6-(5-chloro-2-(4-(4-(methylsulfonyl)piperazin-1-yl)phenyl-amino)pyrimidin-4-ylamino)-4-methyl-2H-benzo[b][1,4]oxazin-3(4H)-one]	≥ 10	0.5 to 5	–
